According to PubChem BioAssay AID330 (DTP/NCI, 2004):
Values joined by “and” are separate entries in the source; they are usually repeats but may differ in a detail not shown here. Equal values may be shown once. Toxic doses and inconclusive results are not listed. Rule for the calls: active = survival T/C of 150% or more; inactive = T/C below 125% in these data.

Tested on: P388 leukemia ip, CD2F1 mice, survival T/C
Test: NCI In Vivo Anticancer Drug Screen. Data for tumor model P388 Leukemia (intraperitoneal) in CD2F1 (CDF1) mice
Conditions: endpoint: median survival time, higher = longer survival
Method in brief: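 Mice carrying the transplanted tumor received test compound or vehicle. Survival was recorded in each group, and the value is the treated-group measurement divided by that of the vehicle-treated control group.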

[1] = dose: 50.0 mg/kg/injection, schedule: Q01DX005 (ip), vehicle: saline with Tween-80
[2] = dose: 100.0 mg/kg/injection, schedule: Q01DX005 (ip), vehicle: saline with Tween-80
[3] = dose: 200.0 mg/kg/injection, schedule: Q01DX005 (ip), vehicle: saline with Tween-80
[4] = dose: 6.25 mg/kg/injection, schedule: Q01DX009 (ip), vehicle: saline with Tween-80
[5] = dose: 12.5 mg/kg/injection, schedule: Q01DX009 (ip), vehicle: saline with Tween-80
[6] = dose: 25.0 mg/kg/injection, schedule: Q01DX009 (ip), vehicle: saline with Tween-80

Measured: T/C

CC(O)C(NC(=O)C(Cc1ccc(O)cc1)NC(=O)C(CCCCN)N(C(=O)OCc1ccccc1)C(=O)OCc1ccccc1)C(=O)OCc1ccccc1 (stereo not given)
inactive: [1] 94 % of control | [2] 92 % of control | [3] 93 % of control

O=[N+]([O-])c1ccc(/C=C/C=C/C=C/C=C/c2ccc(S(=O)(=O)F)cc2Cl)c(Cl)c1
inactive: dose: 15.0 mg/kg/injection, schedule: Q01DX005 (ip), vehicle: saline with Tween-80 99 % of control | dose: 30.0 mg/kg/injection, schedule: Q01DX005 (ip), vehicle: saline with Tween-80 104 % of control | dose: 60.0 mg/kg/injection, schedule: Q01DX005 (ip), vehicle: saline with Tween-80 92 % of control and 98 % of control

Cc1cc(C)n(-c2ccc(S(=O)(=O)N3CC(=O)N(c4ccccc4)C3=S)cc2)n1
inactive: [1] 95 % of control | [2] 93 % of control

O=[N+]([O-])c1ccc(N/N=C(/C(=N/Nc2ccc([N+](=O)[O-])cc2)c2ccccc2)c2ccccc2)cc1
inactive: dose: 25.0 mg/kg/injection, schedule: Q01DX009 (ip), vehicle: other 87 % of control | dose: 50.0 mg/kg/injection, schedule: Q01DX009 (ip), vehicle: other 89 % of control | dose: 100.0 mg/kg/injection, schedule: Q01DX009 (ip), vehicle: other 93 % of control | dose: 100.0 mg/kg/injection, schedule: Q01DX009 (ip), vehicle: saline sonified 90 % of control | dose: 200.0 mg/kg/injection, schedule: Q01DX009 (ip), vehicle: other 93 % of control | dose: 200.0 mg/kg/injection, schedule: Q01DX009 (ip), vehicle: saline sonified 86 % of control | dose: 400.0 mg/kg/injection, schedule: Q01DX009 (ip), vehicle: other 93 % of control | dose: 400.0 mg/kg/injection, schedule: Q01DX009 (ip), vehicle: saline sonified 90 % of control

C=C(c1ccc(N(CC)CC)cc1)c1ccc(N(CC)CC)cc1
inactive: [1] 95 % of control | [2] 103 % of control | [3] 90 % of control

Cc1ccc(S(=O)(=O)OC2C(OCc3ccccc3)OCC(O)C2O)cc1 (stereo not given)
inactive: [1] 102 % of control | [2] 100 % of control | [3] 100 % of control

CC(C)=N/N=C1\C(OC(=O)Nc2ccccc2)=Nc2ccccc21
inactive: [1] 96 % of control | [2] 95 % of control | [3] 90 % of control

NC(Cc1ccc(O)cc1)C(=O)N/N=C/c1ccccc1O (stereo not given)
inactive: [1] 92 % of control | [2] 90 % of control | [3] 113 % of control

O=C(c1ccc(Cl)c(Cl)c1)N1CCNC1=S
inactive: dose: 50.0 mg/kg/injection, schedule: Q01DX009 (ip), vehicle: Klucel (hydroxypropylcellulose) (HPC) 104 % of control | dose: 100.0 mg/kg/injection, schedule: Q01DX009 (ip), vehicle: Klucel (hydroxypropylcellulose) (HPC) 104 % of control | dose: 200.0 mg/kg/injection, schedule: Q01DX009 (ip), vehicle: Klucel (hydroxypropylcellulose) (HPC) 100 % of control

N#CC1(C#N)OC1(C#N)c1ccccc1 (stereo not given)
inactive: dose: 3.0 mg/kg/injection, schedule: Q01DX009 (ip), vehicle: saline with Tween-80 100 % of control | dose: 6.0 mg/kg/injection, schedule: Q01DX009 (ip), vehicle: saline with Tween-80 100 % of control | dose: 12.0 mg/kg/injection, schedule: Q01DX009 (ip), vehicle: saline with Tween-80 100 % of control

CC1COC(O)(C2OCOC(C3CC(=O)NC(=O)C3)C2O)C1C (stereo not given)
inactive: dose: 0.01 mg/kg/injection, schedule: Q01DX009 (ip), vehicle: distilled water + alcohol 100 % of control | dose: 0.03 mg/kg/injection, schedule: Q01DX009 (ip), vehicle: distilled water + alcohol 102 % of control | dose: 0.06 mg/kg/injection, schedule: Q01DX009 (ip), vehicle: distilled water + alcohol 102 % of control | dose: 0.12 mg/kg/injection, schedule: Q01DX009 (ip), vehicle: distilled water + alcohol 102 % of control

C(=NCCCN=CC1CCCC[N-]1)C1CCCC[N-]1.[Cu+2].[O-][Cl+3]([O-])([O-])O (stereo not given)
inactive: dose: 3.12 mg/kg/injection, schedule: Q01DX009 (ip), vehicle: saline with Tween-80 103 % of control | [4] 101 % of control | [5] 103 % of control and 112 % of control | [6] 103 % of control

Cn1c(-c2ccccc2)nc2ccccc2c1=O
inactive: [4] 95 % of control | [5] 101 % of control | [6] 101 % of control
